Measured values published in patent publication US11191293B2, “Nutritional composition and infant formula for promoting myelination of the brain” (NESTEC S.A., priority 2015, dated 2021).

How the values were obtained:
[1] = system: brain myelination (myelin water fraction); test: Cross-sectional correlation of infant formula nutrient content with brain myelination (mcDESPOT MRI myelin water fraction); format: in vivo, human; conditions: formula-fed children up to 5 years of age; brain regions named per nutrient
Protocol: MRI (Magnetic Resonance Imaging): MRI brain scans of infants and children between 0 and 5 years were acquired using a white matter imaging technique. This technique provides a quantitative measure, the Myelin Water Fraction (MWF), which is a surrogate marker of myelin content in the brain. When mapped as a function of time across early childhood, myelination trajectories can be generated.
Infant formula composition: six infant formulas fed to infants participating in a study were analyzed for their composition/level of myelin-relevant nutrients.
Infants included in this study were drawn from a larger longitudinal study of normal brain and behavioral development: the Brown University Assessment of Myelination and Behavior Across Maturation (BAMBAM). To focus on neurotypical development, children with known potential risk factors for learning, neurologic, or psychiatric disorders were specifically excluded during recruitment and enrollment. Thus, children with in utero alcohol or illicit substance exposure, premature (<37 weeks gestation) or multiple birth, fetal ultrasound abnormalities, complicated pregnancy (e.g., preeclampsia), APGAR scores <8, NICU admission, neurological disorder (e.g., head injury, epilepsy), psychiatric or developmental disorders in the infant, parents or siblings (including maternal depression requiring medication) were excluded. Ongoing screenings, such as the MCAT for autism, or CBCL for behavioral problems, were further used to remove enrolled children with clinically concerning behaviors or overt medical conditions (such as autism spectrum disorders).
A combination of retrospective and prospective data were acquired from parents via detailed medical histories and parental interview on the type of infant formula used, percentage of breastfeeding to formula feeding, and length of exclusive breastfeeding. This information was updated at each study visit, which occurred approximately every 6 months for children under 2 years, and yearly for older children. Using this information, children were categorized into one of 2 groups: #1. Exclusively formula-fed; and #2. Exclusively breastfed for at least 90 days (3 months). Children who were fed a combination of breastmilk and formula within 3 months were excluded from our analysis. Infants within the exclusively formula-fed group were further sub-divided based on parental reports of the main infant formula used throughout the first 3 months. Main formula was defined as that given 90% of the time or more (in the case were parents used an alternate brand during vacation, for example).
Using these criteria, 94 exclusively formula-fed infants and young children were selected into group #1. These included 13 children who received formula #2; 28 who received formula #5; 8 who received formula #3; 39 who received formula #4; 5 who received formula #1 and 1 who received formula #6. A sample of 52 exclusively breast-fed infants were also selected and matched to the over formula-fed group with regards to mean age, gestation duration, birth weight, male:female ratio, ethnicity ratio, maternal education, family size, and number of languages spoken in the home (in addition to English).
Each infant was scanned using the mcDESPOT (multicomponent Driven Equilibrium Single Pulse Observation of T1 and T2) white matter imaging technique Deoni et al. (Magn. Reson. Med. 2008, 60:1372-1387), which provides a quantitative measure of the myelin water fraction (MWF)—a measure of myelin content—at each point throughout the brain. All infants were scanned during natural (i.e. non-sedated) sleep using acoustically-muffled mcDESPOT imaging protocols. Total imaging times ranged from 19 minutes for the youngest toddlers to 24 minutes for the older 4 year-old children.

[2] = system: neural progenitor cell (NPCs); test: Differentiation assay: quantification of neuronal and glial marker expression in monolayer NPC culture; format: cell-based, mouse; parameters: key: marker integrated density normalized to DAPI integrated density; conditions: 9 d culture; for astrocyte cell density: GFAP normalized to DAPI
Protocol: Generation of neural progenitor cell (NPCs) libraries: dissociation of E14 mouse neocortex E14 pup brains were harvested and placed in ice cold DPBS(1X)+10% Pen/Strep, then they were dissected using a dissecting microscope. From each pup, one brain hemisphere was placed in 2 ml of Neurobasal media/10% P/S/10X Hepes and another brain hemisphere was placed in another tube. The tissue from each tube was aseptically and manually dissociate into single cells, neurobasal complete medium was added and centrifuged at […] for 5 min. The tissue was then re-suspended in neurobasal complete media with GF and placed in a corning suspension culture dish 100 mm×20 mm (#430591). […] 24 well glass bottom plates (Mat Tek […]-1.0-13-F Case, glass bottom 24 well plates) were coated with poly-L-ornithin (Sigma P4957) and Fibronection (Sigma F1141) before use in the assay below. Cells were plated (10,000 cells per well) in Complete media with GF for 24 hours (500 ul per well). […] After 24 hours, it was ensured that cells were attached to the plate, then the medium was carefully removed. […] Note: medium contains no GF. […] The cells were culture for 9 d in media plus 2% Nu Serum, the medium was changed every 2 nd day. For fixation and subsequent immunohistochemical analysis the medium was removed, the cells were rinsed once with 1X PBS for 5 min, and fixed with 4% PFA in 1X PBS for 15 min at 4° C. The cells were then washed twice with 1X PBS for 5 min, left in 1X PBS, wrapped in foil and left overnight at 4C, or they were immediately primary antibody staining was carried out. PBS was removed and enough AB staining solution (1% Goat serum, 1xPBS, and 0.1% triton X) was added to cover the bottom, the block was kept at room temp for 1 hour. Primary antibody dilutions were made in appropriate amount of AB staining solution, 250 ul per well (the antibodies were only kept out on ice for a short time, mouse anti-MAP2 or TUJ1 1:500 (neuron marker), rabbit anti-GFAP(glial marker) 1:1000, chicken anti-Nestin CFP (EGFP antibody (progenitor cell marker)) 1:1000. AB staining solution was removed and a solution of primary antibodies was added to each chamber. The cells were wrapped in foil and kept overnight 4'C. The cells were then washed with 400 ul of AB staining solution for 5 min once to remove primary antibodies. Secondary antibody solutions were made (enough for 250 ul of each chamber) (Goat anti-mouse alexa 488 1:2000, anti-rabbit Cy3 (1:500), anti-chicken alexa 647 1:500, and 1:5000 Dapi). The cells were incubated at room temp for 1 hour in the dark and washed 2 time in AB staining solution for five mins. They were then kept at 4° C. or Imaged using a GE Cytell imager or LSM 710, Zeiss confocal microscope and analyze with ImageJ software(National Institutes of Health). Each marker expression was measured on collected images (integrated density measure in ImageJ) and normalized to DAPI fluorescence, marking all nuclei (integrated density measure). Octanoic Acid were labeled with neuronal beta-tubulin III (TuJ1), subsequent compounds were labeled with Microtubule-associated protein 2 (MAP2).

CCCCC/C=C\C/C=C\C/C=C\C/C=C\CCCC(=O)O [AA, arachidonic acid]
association of nutrient content of infant formula with myelination (myelin water fraction) over time in the brain [1]: an association with myelination (myelin water fraction) was observed

CCCCCCCC/C=C\CCCCCCCCCCCCCC(=O)O [Nervonic acid, Nervonic Acid]
astrocyte cell density ([2]; Nervonic acid high dose (Dose 3, 1 μm)): 0.7028
Neuronal Cell density ([2]; Nervonic acid high dose (Dose 3, 1 μm), MAP2 normalized to DAPI): 0.5394
astrocyte cell density ([2]; Nervonic acid low dose (Dose 1, 10 nM)): 0.6218
Neuronal Cell density ([2]; Nervonic acid low dose (Dose 1, 10 nM), MAP2 normalized to DAPI): 0.4676
astrocyte cell density ([2]; Nervonic acid med dose (Dose 2, 100 nM)): 0.7215
Neuronal Cell density ([2]; Nervonic acid med dose (Dose 2, 100 nM), MAP2 normalized to DAPI): 0.5656

CCCCCCCC(=O)O [Octanoic acid, Octanoic Acid]
astrocyte cell density ([2]; Octanoic acid high dose (Dose 3, 250 μM)): 7.9
Neuronal Cell density ([2]; Octanoic acid high dose (Dose 3, 250 μM), TuJ1 normalized to DAPI): 1.7
astrocyte cell density ([2]; Octanoic acid low dose (Dose 1, 10 μM)): 3.7
Neuronal Cell density ([2]; Octanoic acid low dose (Dose 1, 10 μM), TuJ1 normalized to DAPI): 1.2
astrocyte cell density ([2]; Octanoic acid med dose (Dose 2, 50 μM)): 6.1
Neuronal Cell density ([2]; Octanoic acid med dose (Dose 2, 50 μM), TuJ1 normalized to DAPI): 1.8

CCCCCCCCCCCCCCCCCC(=O)O [Stearic acid, Stearic Acid]
astrocyte cell density ([2]; Stearic acid high dose (Dose 3, 10 μM)): 0.85
Neuronal Cell density ([2]; Stearic acid high dose (Dose 3, 10 μM), MAP2 normalized to DAPI): 0.64
astrocyte cell density ([2]; Stearic acid low dose (Dose 1, 100 nM)): 0.68
Neuronal Cell density ([2]; Stearic acid low dose (Dose 1, 100 nM), MAP2 normalized to DAPI): 0.54
astrocyte cell density ([2]; Stearic acid med dose (Dose 2, 1 μm)): 0.81
Neuronal Cell density ([2]; Stearic acid med dose (Dose 2, 1 μm), MAP2 normalized to DAPI): 0.66

[Ca+2] [calcium]
association of nutrient content of infant formula with myelination (myelin water fraction) over time in the brain [1]: an association with myelination (myelin water fraction) was observed

[Mg+2] [magnesium]
association of nutrient content of infant formula with myelination (myelin water fraction) over time in the brain [1]: an association with myelination (myelin water fraction) was observed

[P] [phosphorus]
association of nutrient content of infant formula with myelination (myelin water fraction) over time in the brain [1]: an association with myelination (myelin water fraction) was observed

[Zn] [zinc]
association of nutrient content of infant formula with myelination (myelin water fraction) over time in the brain [1]: an association with myelination (myelin water fraction) was observed

iron
association of nutrient content of infant formula with myelination (myelin water fraction) over time in the brain [1]: an association with myelination (myelin water fraction) was observed

phosphatidylcholine
association of nutrient content of infant formula with myelination (myelin water fraction) over time in the brain [1]: an association with myelination (myelin water fraction) was observed

phosphatidylinositol
association of nutrient content of infant formula with myelination (myelin water fraction) over time in the brain [1]: an association with myelination (myelin water fraction) was observed

vitamin B12
association of nutrient content of infant formula with myelination (myelin water fraction) over time in the brain [1]: an association with myelination (myelin water fraction) was observed
